These are literature values, as cited in patent US20020028808A1, “Use of potassium channel agonists for the treatment of cancer” (priority 2000, published 2002).

Like-named read-outs stand apart in the source and are kept apart here.

Data set [1] has as its target T1, KATP-channels on pancreatic beta-cells (Homo sapiens, UniProt Q09428+Q14654).
T1 construct: KATP-channels on pancreatic beta-cells; host or cells: pancreatic beta-cells
The following applies: by activation of KATP-channels.

Data set [2] deals with patients suffering from insulinoma and nesidioblastosis.
In data set [3] the test system is adipose tissue of Zucker rats.

T1 sequence (Q09428 whole entry): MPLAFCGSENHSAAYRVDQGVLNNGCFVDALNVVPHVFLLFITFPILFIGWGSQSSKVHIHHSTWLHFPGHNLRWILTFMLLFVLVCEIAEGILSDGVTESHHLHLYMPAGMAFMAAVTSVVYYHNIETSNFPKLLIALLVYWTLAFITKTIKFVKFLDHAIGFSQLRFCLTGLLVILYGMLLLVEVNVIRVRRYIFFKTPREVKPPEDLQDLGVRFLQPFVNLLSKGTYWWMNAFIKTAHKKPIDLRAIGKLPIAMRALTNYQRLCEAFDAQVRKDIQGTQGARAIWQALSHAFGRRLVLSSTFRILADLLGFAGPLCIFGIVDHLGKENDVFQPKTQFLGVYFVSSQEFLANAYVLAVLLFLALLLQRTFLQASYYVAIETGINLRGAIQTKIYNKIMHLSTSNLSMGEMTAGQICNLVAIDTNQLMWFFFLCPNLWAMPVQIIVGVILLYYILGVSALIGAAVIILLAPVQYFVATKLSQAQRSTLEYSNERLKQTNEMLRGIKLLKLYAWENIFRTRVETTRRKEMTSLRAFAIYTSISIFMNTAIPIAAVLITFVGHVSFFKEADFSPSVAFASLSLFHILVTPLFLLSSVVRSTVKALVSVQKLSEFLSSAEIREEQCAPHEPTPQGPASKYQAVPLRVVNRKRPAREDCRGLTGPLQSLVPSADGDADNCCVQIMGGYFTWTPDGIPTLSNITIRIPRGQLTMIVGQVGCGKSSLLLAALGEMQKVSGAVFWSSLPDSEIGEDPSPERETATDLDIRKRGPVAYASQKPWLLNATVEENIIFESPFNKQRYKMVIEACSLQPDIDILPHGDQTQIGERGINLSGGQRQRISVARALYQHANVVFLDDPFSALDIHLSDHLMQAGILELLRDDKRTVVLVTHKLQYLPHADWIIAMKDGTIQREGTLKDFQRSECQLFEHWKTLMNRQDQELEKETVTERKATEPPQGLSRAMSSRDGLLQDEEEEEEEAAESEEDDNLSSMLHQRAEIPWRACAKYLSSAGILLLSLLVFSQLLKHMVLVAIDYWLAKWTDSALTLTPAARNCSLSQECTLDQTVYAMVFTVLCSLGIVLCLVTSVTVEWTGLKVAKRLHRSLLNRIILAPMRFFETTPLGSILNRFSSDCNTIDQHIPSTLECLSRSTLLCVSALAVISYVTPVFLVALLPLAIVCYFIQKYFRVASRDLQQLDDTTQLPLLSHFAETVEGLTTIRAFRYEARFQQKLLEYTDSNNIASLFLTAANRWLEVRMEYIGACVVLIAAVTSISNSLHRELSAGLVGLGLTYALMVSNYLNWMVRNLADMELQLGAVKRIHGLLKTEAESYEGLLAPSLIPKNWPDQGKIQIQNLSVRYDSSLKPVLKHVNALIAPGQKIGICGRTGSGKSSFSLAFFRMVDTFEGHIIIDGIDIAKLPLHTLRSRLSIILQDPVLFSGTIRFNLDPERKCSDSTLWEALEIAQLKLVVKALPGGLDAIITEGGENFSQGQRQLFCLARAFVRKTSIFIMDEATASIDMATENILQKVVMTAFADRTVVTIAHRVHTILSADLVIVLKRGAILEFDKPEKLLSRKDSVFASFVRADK
T1 sequence (Q14654 whole entry): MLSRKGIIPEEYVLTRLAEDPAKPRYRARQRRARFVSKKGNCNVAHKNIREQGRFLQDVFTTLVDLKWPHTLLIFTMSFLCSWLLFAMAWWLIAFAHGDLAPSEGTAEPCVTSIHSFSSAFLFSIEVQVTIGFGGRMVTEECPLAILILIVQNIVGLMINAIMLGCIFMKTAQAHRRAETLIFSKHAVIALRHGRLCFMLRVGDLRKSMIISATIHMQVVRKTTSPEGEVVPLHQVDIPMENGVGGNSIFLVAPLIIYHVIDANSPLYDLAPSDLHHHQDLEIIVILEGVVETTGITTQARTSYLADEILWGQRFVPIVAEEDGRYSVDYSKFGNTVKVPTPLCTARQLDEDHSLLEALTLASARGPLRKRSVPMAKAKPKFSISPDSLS

`CC1=Nc2ccc(Cl)cc2S(=O)(=O)N1` [diazoxide, 7-chloro-3-methyl-2H-1,2,4-benzothiadiazine 1,1-dioxide]: the insulin release entry in data set [1] is “inhibit insulin release”. Also, the abnormal hyperinsulinaemia result in data set [2] (nesidioblastosis (PHHI, persistent hyperinsulinaemia and hypoglycemia of infancy)) is on record as “ameliorates the abnormal hyperinsulinaemia”; in data set [2] (patients suffering from insulinoma), “ameliorates the abnormal hyperinsulinaemia”. Also, in the data set with healthy individuals, the “glucose stimulated insulin release” value was “reduces glucose stimulated insulin release”. Further, in data set [3], the “leptin and lipid metabolising enzymes” value was “down-regulate leptin and lipid metabolising enzymes”.
